Measurements taken from patent US10254297B2, “Assay for methoxetamine” (Randox Laboratories Ltd, priority 2015, dated 2019).
Values after ≈ are worked out from the molar mass of the structure shown.

Test system: antibody raised against Immunogen 2 (Example 9), Tracer 1
Assay: Competitive assay (ELISA) for cross-reactivity measurement
Format: binding, sheep
Conditions: for CCR (competitive cross reactivity): Table 1, antibodies raised against Immunogen 2, Tracer 1, relative to methoxetamine = 100%, summarised from FIGS. 5 to 7; for Antibody binding, in words: Table 1 and FIGS. 5 to 7, antibody of the invention; for IC50 used in % CCR calculation: standard concentration giving 50% inhibition of maximal signal
[1] = FIG. 5 (antibody derived from sheep 1)

SMILES	CCR (competitive cross reactivity) [%]	Antibody binding, in words	IC50 used in % CCR calculation [1] [ng/mL]	% CCR (compared to methoxetamine) (FIG. 5 (antibody derived from sheep 1), IC50 methoxetamine / IC50 analyte x 100) [%]
CNC1(c2ccccc2Cl)CCCCC1=O (stereo not drawn) [Ketamine]	<5.00	does not bind		
CCNC1(c2cccc(OC)c2)CCCCC1=O (stereo not drawn) [Methoxetamine, 2-(3-methoxyphenyl)-2-(ethylamino)cyclohexanone]	100.00	high affinity	0.47 (≈ 1.9 nM)	
COc1cccc(C2(N)CCCCC2=O)c1 (stereo not drawn) [N-desethylmethoxetamine, 2-amino-2-(3-methoxyphenyl)cyclohexanone]	>5.00	substantial binding	1.96 (≈ 8.94 nM)	24
NC1(c2ccccc2Cl)CCCCC1=O (stereo not drawn) [Norketamine]	<5.00			
c1ccc(C2(N3CCCCC3)CCCCC2)cc1 [Phencyclidine]	<5.00	does not bind		
CCOC(=O)C1(c2ccccc2)CCC=CC1N(C)C (stereo not drawn) [Tilidine]	<5.00			
COc1cccc(C2(O)CCCCC2CN(C)C)c1 (stereo not drawn) [Tramadol]	<5.00	does not bind		
